In the supplement of paper PMC8671470:
± gives the standard deviation of the averaged measurements.

System: HL-60
Assay: cell viability (% survival relative to DMSO control); higher = less cytotoxic
Conditions: 72 h
Method in brief: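 A rescreen of the full library used HL-60 cells in RPMI 1640 with 10% FBS on 384-well plates, run in duplicate at five tenfold concentrations (1–10,000 nM). Each screen included DMSO or 100 nM of one of three metabolic inhibitors and ran 72 h at 37 °C, 5% CO2. CellTiter-Glo viability was scaled between DMSO and 10 μM proteasome-inhibitor wells. Any area under the curve comes from four-parameter log-logistic fits with drc and PharmacoGx.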

[1] = 0.001 µM, co-treatment: AZD3965 100 nM
[2] = 0.001 µM, co-treatment: DMSO vehicle
[3] = 0.001 µM, co-treatment: GSK2194069 100 nM
[4] = 0.001 µM, co-treatment: pictilisib 100 nM
[5] = 0.01 µM, co-treatment: AZD3965 100 nM
[6] = 0.01 µM, co-treatment: DMSO vehicle
[7] = 0.01 µM, co-treatment: GSK2194069 100 nM
[8] = 0.01 µM, co-treatment: pictilisib 100 nM
[9] = 0.1 µM, co-treatment: AZD3965 100 nM
[10] = 0.1 µM, co-treatment: DMSO vehicle
[11] = 0.1 µM, co-treatment: GSK2194069 100 nM
[12] = 0.1 µM, co-treatment: pictilisib 100 nM
[13] = 1 µM, co-treatment: AZD3965 100 nM
[14] = 1 µM, co-treatment: DMSO vehicle
[15] = 1 µM, co-treatment: GSK2194069 100 nM
[16] = 1 µM, co-treatment: pictilisib 100 nM
[17] = 10 µM, co-treatment: AZD3965 100 nM
[18] = 10 µM, co-treatment: DMSO vehicle
[19] = 10 µM, co-treatment: GSK2194069 100 nM
[20] = 10 µM, co-treatment: pictilisib 100 nM

Structure (SMILES)	cell viability [1] [%]	cell viability [2] [%]	cell viability [3] [%]	cell viability [4] [%]	cell viability [5] [%]	cell viability [6] [%]	cell viability [7] [%]	cell viability [8] [%]	cell viability [9] [%]	cell viability [10] [%]	cell viability [11] [%]	cell viability [12] [%]	cell viability [13] [%]	cell viability [14] [%]	cell viability [15] [%]	cell viability [16] [%]	cell viability [17] [%]	cell viability [18] [%]	cell viability [19] [%]	cell viability [20] [%]
CC12CCC(O)CC1CCC1C2CCC2(C)C(C3=CC(=O)OC3)CCC12O (stereo not given) [Digitoxigenin]	104 ± 7.6	99.5 ± 2.3	98.16 ± 0.98	104 ± 4.3	100 ± 5.7	105 ± 4.2	99.7 ± 2	105 ± 4.2	102 ± 1.2	100 ± 3	95 ± 3	101.7 ± 0.93	-0.584 ± 0.77	-1.01 ± 1.5	-0.749 ± 1.5	-1.18 ± 0.99	-0.476 ± 0.086	-0.944 ± 0.072	-1.7 ± 0.21	-1.09 ± 0.14
C1CCc2nnc(C34CC5CC(CC(C5)C3)C4)n2CC1 [MERCK-544]	103 ± 3	98.4 ± 1.3	105 ± 1.7	97 ± 1.1	103.1 ± 0.36	103 ± 2.8	108 ± 2	109 ± 8.3	99.41 ± 0.58	98.1 ± 2.4	99.8 ± 1.6	96.63 ± 0.71	100.6 ± 0.51	99.7 ± 1.4	96.27 ± 0.66	95.52 ± 0.25	108 ± 2	101 ± 2.6	109 ± 5.7	102 ± 10
Cc1c(-c2ccccc2)oc2c(C(=O)OCCN3CCCCC3)cccc2c1=O.Cl [Flavoxate]	90.8 ± 13	99.7 ± 1.6	82.5 ± 21	98.6 ± 1	101.5 ± 0.24	100 ± 1.1	101 ± 2.1	105 ± 3.5	109 ± 9.9	104 ± 2.8	105 ± 11	110 ± 16	103 ± 3.7	95.5 ± 12	98.1 ± 9.8	101 ± 9.9	97.1 ± 5.2	98.8 ± 0.023	91.7 ± 8	91.7 ± 10
CCCc1nn(C)c2c(O)nc(-c3cc(S(=O)(=O)N4CCN(C)CC4)ccc3OCC)nc12 [Sildenafil]	104 ± 6.6	88.1 ± 13	91.3 ± 6.8	79.6 ± 40	99.2 ± 1.4	98.4 ± 4.1	96.77 ± 0.75	102 ± 7.1	104.5 ± 0.69	106 ± 5.1	123 ± 12	117 ± 10	99.4 ± 4.6	103 ± 2.1	97.06 ± 0.92	93.6 ± 18	99.89 ± 0.83	102 ± 2.9	93 ± 1.7	94.7 ± 7.5
C[C@]12CC[C@H](O)CC1=CC[C@@H]1[C@@H]2CC[C@]2(C)C(c3cccnc3)=CC[C@@H]12 [Abiraterone]	109 ± 10	97.8 ± 1.5	106.3 ± 0.78	104 ± 14	103 ± 1.9	98 ± 2.3	96.1 ± 4.2	102 ± 8	93.4 ± 14	93.1 ± 11	86.9 ± 16	84.9 ± 22	100.2 ± 0.73	97.9 ± 1.7	107 ± 11	99.5 ± 8.8	103 ± 5.8	105 ± 5.8	105 ± 8.8	108 ± 1.3
C#Cc1cnc(O)nc1O [Eniluracil]	86 ± 17	102 ± 2	88.7 ± 30	85.5 ± 17	97.4 ± 1.8	101.6 ± 0.32	93.8 ± 3.5	100.4 ± 0.67	103 ± 2.1	101.1 ± 0.89	100.8 ± 0.49	99.32 ± 0.24	103 ± 1.8	99.9 ± 4.8	95.8 ± 9.8	102 ± 6.5	102.99 ± 0.034	101 ± 4.8	96.7 ± 6.7	103 ± 4.7
Cc1coc2c1C(=O)C(=O)c1c-2ccc2c(C)cccc12 [Tanshinone I]	100.1 ± 0.2	97.288 ± 0.063	94.6 ± 6.6	97.1 ± 5.6	101 ± 1.8	103 ± 6.3	103.8 ± 0.31	104 ± 3.1	104 ± 9.7	101.8 ± 0.9	108 ± 12	101 ± 0.32	104 ± 1.6	103.5 ± 0.31	102 ± 4.4	103.6 ± 0.57	100.3 ± 0.27	97.2 ± 5.3	101 ± 1.4	106 ± 9.7
c1ccc2c(c1)OCC(=C1NCCN1)O2 [Idazoxan]	103 ± 1.6	99.03 ± 0.46	99.9 ± 1.9	104 ± 1.9	98 ± 3.2	101.2 ± 0.3	101 ± 1.7	102 ± 1.5	102 ± 3.3	100.8 ± 0.84	101.2 ± 0.31	93 ± 1.3	96 ± 5.5	101 ± 1.5	98.4 ± 4.8	95.1 ± 1.4	100 ± 2.2	98.4 ± 3.7	99.15 ± 0.27	98.7 ± 9.1
Clc1ccc2c(c1Cl)CNCC2	97.69 ± 0.2	100 ± 2.3	93.2 ± 0.5	97.1 ± 7.5	94 ± 7.1	103.4 ± 0.11	102.4 ± 0.12	108 ± 11	103 ± 2.1	103 ± 3.9	107 ± 9.4	103 ± 8.7	105 ± 4.7	99.5 ± 2.9	106.8 ± 0.64	95.3 ± 7.3	102 ± 1.6	107 ± 6.2	99.73 ± 0.7	103.3 ± 0.41
CCOC(=O)[C@H]1O[C@@H]1C(=O)N[C@@H](CC(C)C)C(=O)NCCC(C)C [Aloxistatin]	100 ± 1.1	102 ± 6	102 ± 11	106 ± 11	101 ± 4.6	104 ± 7.9	106 ± 15	115 ± 19	98 ± 5.8	100 ± 1.2	95.8 ± 2.5	100 ± 6.3	97.6 ± 3.7	100 ± 1.4	92.5 ± 11	106 ± 5.1	103 ± 6.2	99.7 ± 2.7	115 ± 23	99.7 ± 3.2
Cc1noc2c1-c1ccccc1C(c1ccc(Cl)cc1)=N[C@H]2CC(N)=O [CPI-0610]	101 ± 2.2	96.3 ± 1.7	101 ± 1.7	104 ± 2.6	101 ± 1.5	95.3 ± 1.7	100.1 ± 0.39	94.4 ± 1.4	92 ± 14	98.8 ± 2.3	97.5 ± 6.9	75.5 ± 14	62.6 ± 7.4	74.8 ± 9.4	71.4 ± 2.1	45.8 ± 1.4	16.8 ± 1.1	23.7 ± 2.8	25.3 ± 6.1	8.68 ± 2.2
Sc1ncnc2nc[nH]c12 [6-mercaptopurine]	101.3 ± 0.71	104 ± 1.1	99.93 ± 0.86	102 ± 1.8	102.8 ± 0.97	98.8 ± 7	106 ± 2.9	108 ± 6.8	96.3 ± 2	97.9 ± 2.4	95.62 ± 0.77	91.2 ± 1	101.2 ± 0.68	102 ± 4.9	89.8 ± 13	98.3 ± 10	23.9 ± 2	35.1 ± 1.3	35.9 ± 3	32.6 ± 0.66
